Results reported in patent US20230085307A1, “PYRIDAZINONE COMPOUND AND HERBICIDE” (NISSAN CHEMICAL CORPORATION, priority 2019, published 2023).

Experiments:
barnyard grass [1] = assay: Test Example 3: herbicidal effect by foliage application, Wagner pot (Table 18, symbol H); assay type: in vivo, barnyard grass (Echinochloa crus-galli); details: 320 g/ha
Outline: (§1)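 Plants were sown in alluvial soil held under 0.1–0.5 cm standing water and grown 14 days in a greenhouse at 25–30 °C. An emulsifiable formulation, water-diluted to the set dose, was then sprayed onto the foliage, and effects were scored three weeks later using previously defined criteria.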

Chinese sprangletop = assay: Test Example 3: herbicidal effect by foliage application, Wagner pot (Table 18, symbol D); assay type: in vivo, chinese sprangletop (Leptochloa chinensis); details: 320 g/ha
Outline: as §1

rice flat sedge = assay: Test Example 3: herbicidal effect by foliage application, Wagner pot (Table 18, symbol E); assay type: in vivo, rice flat sedge (Cyperus iria); details: 320 g/ha
Outline: as §1

southern crabgrass [2] = assay: Test Example 4: herbicidal effect by soil treatment (Table 19, symbol F); assay type: in vivo, southern crabgrass (Digitaria ciliaris); details: amount of applied herbicide 320 g/ha
Outline: (§2)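 Soil-surface application: an emulsion agent diluted with water to the predetermined dose is sprayed uniformly over seeds lying under roughly 1.5 cm of sterilized diluvial soil. Boxes stay in a greenhouse at 25° C. to 30° C. Three weeks later, each species is graded on previously defined criteria.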

green foxtail [3] = assay: Test Example 4: herbicidal effect by soil treatment (Table 19, symbol G); assay type: in vivo, green foxtail (Setaria viridis); details: amount of applied herbicide 320 g/ha
Outline: as §2

barnyard grass [4] = assay: Test Example 4: herbicidal effect by soil treatment (Table 19, symbol H); assay type: in vivo, barnyard grass (Echinochloa crus-galli); details: amount of applied herbicide 320 g/ha
Outline: as §2

wild oat [5] = assay: Test Example 4: herbicidal effect by soil treatment (Table 19, symbol I); assay type: in vivo, wild oat (Avena fatua); details: amount of applied herbicide 320 g/ha
Outline: as §2

Italian ryegrass [6] = assay: Test Example 4: herbicidal effect by soil treatment (Table 19, symbol K); assay type: in vivo, Italian ryegrass (Lolium multiflorum); details: amount of applied herbicide 320 g/ha
Outline: as §2

windgrass [7] = assay: Test Example 4: herbicidal effect by soil treatment (Table 19, symbol L); assay type: in vivo, windgrass (Apera spica-venti); details: amount of applied herbicide 320 g/ha
Outline: as §2

velvetleaf [8] = assay: Test Example 4: herbicidal effect by soil treatment (Table 19, symbol M); assay type: in vivo, velvetleaf (Abutilon theophrasti); details: amount of applied herbicide 320 g/ha
Outline: as §2

redroot pigweed [9] = assay: Test Example 4: herbicidal effect by soil treatment (Table 19, symbol N); assay type: in vivo, redroot pigweed (Amaranthus retroflexus); details: amount of applied herbicide 320 g/ha
Outline: as §2

lambsquarters [10] = assay: Test Example 4: herbicidal effect by soil treatment (Table 19, symbol O); assay type: in vivo, lambsquarters (Chenopodium album); details: amount of applied herbicide 320 g/ha
Outline: as §2

chickweed [11] = assay: Test Example 4: herbicidal effect by soil treatment (Table 19, symbol P); assay type: in vivo, common chickweed (Stellaria media); details: amount of applied herbicide 320 g/ha
Outline: as §2

false cleavers [12] = assay: Test Example 4: herbicidal effect by soil treatment (Table 19, symbol Q); assay type: in vivo, false cleavers (Galium spurium); details: amount of applied herbicide 320 g/ha
Outline: as §2

persian speedwell [13] = assay: Test Example 4: herbicidal effect by soil treatment (Table 19, symbol R); assay type: in vivo, Persian speedwell (Veronica persica); details: amount of applied herbicide 320 g/ha
Outline: as §2

southern crabgrass [14] = assay: Test Example 5: herbicidal effect by foliage application, plastic box (Table 20, symbol F); assay type: in vivo, southern crabgrass (Digitaria ciliaris); details: foliage application, 320 g/ha, three weeks after application
Outline: (§3)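 Sow seeds spot-wise in sterilized diluvial soil; cover with ~1.5 cm soil. Grow 14 days in greenhouse, 25° C. to 30° C. Spray foliage with emulsion diluted to predetermined amount. Rate effect after 3 weeks.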

green foxtail [15] = assay: Test Example 5: herbicidal effect by foliage application, plastic box (Table 20, symbol G); assay type: in vivo, green foxtail (Setaria viridis); details: foliage application, 320 g/ha, three weeks after application
Outline: as §3

barnyard grass [16] = assay: Test Example 5: herbicidal effect by foliage application, plastic box (Table 20, symbol H); assay type: in vivo, barnyard grass (Echinochloa crus-galli); details: foliage application, 320 g/ha, three weeks after application
Outline: as §3

wild oat [17] = assay: Test Example 5: herbicidal effect by foliage application, plastic box (Table 20, symbol I); assay type: in vivo, wild oat (Avena fatua); details: foliage application, 320 g/ha, three weeks after application
Outline: as §3

blackgrass [18] = assay: Test Example 5: herbicidal effect by foliage application, plastic box (Table 20, symbol J); assay type: in vivo, blackgrass (Alopecurus myosuroides); details: foliage application, 320 g/ha, three weeks after application
Outline: as §3

Italian ryegrass [19] = assay: Test Example 5: herbicidal effect by foliage application, plastic box (Table 20, symbol K); assay type: in vivo, Italian ryegrass (Lolium multiflorum); details: foliage application, 320 g/ha, three weeks after application
Outline: as §3

windgrass [20] = assay: Test Example 5: herbicidal effect by foliage application, plastic box (Table 20, symbol L); assay type: in vivo, windgrass (Apera spica-venti); details: foliage application, 320 g/ha, three weeks after application
Outline: as §3

velvetleaf [21] = assay: Test Example 5: herbicidal effect by foliage application, plastic box (Table 20, symbol M); assay type: in vivo, velvetleaf (Abutilon theophrasti); details: foliage application, 320 g/ha, three weeks after application
Outline: as §3

redroot pigweed [22] = assay: Test Example 5: herbicidal effect by foliage application, plastic box (Table 20, symbol N); assay type: in vivo, redroot pigweed (Amaranthus retroflexus); details: foliage application, 320 g/ha, three weeks after application
Outline: as §3

lambsquarters [23] = assay: Test Example 5: herbicidal effect by foliage application, plastic box (Table 20, symbol O); assay type: in vivo, lambsquarters (Chenopodium album); details: foliage application, 320 g/ha, three weeks after application
Outline: as §3

chickweed [24] = assay: Test Example 5: herbicidal effect by foliage application, plastic box (Table 20, symbol P); assay type: in vivo, common chickweed (Stellaria media); details: foliage application, 320 g/ha, three weeks after application
Outline: as §3

false cleavers [25] = assay: Test Example 5: herbicidal effect by foliage application, plastic box (Table 20, symbol Q); assay type: in vivo, false cleavers (Galium spurium); details: foliage application, 320 g/ha, three weeks after application
Outline: as §3

persian speedwell [26] = assay: Test Example 5: herbicidal effect by foliage application, plastic box (Table 20, symbol R); assay type: in vivo, Persian speedwell (Veronica persica); details: foliage application, 320 g/ha, three weeks after application
Outline: as §3

blackgrass [27] = assay: Test Example 4: herbicidal effect by soil treatment (Table 19, symbol J); assay type: in vivo, blackgrass (Alopecurus myosuroides); details: amount of applied herbicide 320 g/ha
Outline: as §2

Structure (SMILES)	herbicidal effect on barnyard grass (H) (barnyard grass [1])	herbicidal effect on Chinese sprangletop (D) (Chinese sprangletop)	herbicidal effect on rice flat sedge (E) (rice flat sedge)	F: southern crabgrass, herbicidal effect grade (southern crabgrass [2])	G: green foxtail, herbicidal effect grade (green foxtail [3])	H: barnyard grass, herbicidal effect grade (barnyard grass [4])	I: wild oat, herbicidal effect grade (wild oat [5])	K: Italian ryegrass, herbicidal effect grade (Italian ryegrass [6])	L: windgrass, herbicidal effect grade (windgrass [7])	M: velvetleaf, herbicidal effect grade (velvetleaf [8])	N: redroot pigweed, herbicidal effect grade (redroot pigweed [9])	O: lambsquarters, herbicidal effect grade (lambsquarters [10])	P: chickweed, herbicidal effect grade (chickweed [11])	Q: false cleavers, herbicidal effect grade (false cleavers [12])	R: persian speedwell, herbicidal effect grade (persian speedwell [13])	also measured
COc1ccc2c(-c3c(O)c(C)nn(C)c3=O)c(-c3ccccc3)sc2c1 [3-061]	2 (Herbicidal rate of 20% or more and less than 40%)	3 (Herbicidal rate of 40% or more and less than 70%)	5 (Herbicidal rate of 90% or more (almost completely withered))	0 (Herbicidal rate of 5% or less (almost no effect))	4 (Herbicidal rate of 70% or more and less than 90%)	3 (Herbicidal rate of 40% or more and less than 70%)	2 (Herbicidal rate of 20% or more and less than 40%)	0 (Herbicidal rate of 5% or less (almost no effect))	0 (Herbicidal rate of 5% or less (almost no effect))	0 (Herbicidal rate of 5% or less (almost no effect))	0 (Herbicidal rate of 5% or less (almost no effect))	2 (Herbicidal rate of 20% or more and less than 40%)	3 (Herbicidal rate of 40% or more and less than 70%)	2 (Herbicidal rate of 20% or more and less than 40%)	4 (Herbicidal rate of 70% or more and less than 90%)	F: southern crabgrass, herbicidal effect grade (southern crabgrass [14]): 0 (Herbicidal rate of 5% or less (almost no effect)); G: green foxtail, herbicidal effect grade (green foxtail [15]): 0 (Herbicidal rate of 5% or less (almost no effect)); H: barnyard grass, herbicidal effect grade (barnyard grass [16]): 0 (Herbicidal rate of 5% or less (almost no effect)); I: wild oat, herbicidal effect grade (wild oat [17]): 4 (Herbicidal rate of 70% or more and less than 90%); J: blackgrass, herbicidal effect grade (blackgrass [18]): 3 (Herbicidal rate of 40% or more and less than 70%); K: Italian ryegrass, herbicidal effect grade (Italian ryegrass [19]): 3 (Herbicidal rate of 40% or more and less than 70%); L: windgrass, herbicidal effect grade (windgrass [20]): 3 (Herbicidal rate of 40% or more and less than 70%); M: velvetleaf, herbicidal effect grade (velvetleaf [21]): 5 (Herbicidal rate of 90% or more (almost completely withered)); N: redroot pigweed, herbicidal effect grade (redroot pigweed [22]): 4 (Herbicidal rate of 70% or more and less than 90%); O: lambsquarters, herbicidal effect grade (lambsquarters [23]): 4 (Herbicidal rate of 70% or more and less than 90%); P: chickweed, herbicidal effect grade (chickweed [24]): 5 (Herbicidal rate of 90% or more (almost completely withered)); Q: false cleavers, herbicidal effect grade (false cleavers [25]): 4 (Herbicidal rate of 70% or more and less than 90%); R: persian speedwell, herbicidal effect grade (persian speedwell [26]): 5 (Herbicidal rate of 90% or more (almost completely withered))
COc1cc2sc(-c3ccc(F)cc3OC)c(-c3c(O)c(C)nn(C)c3=O)c2cc1OC [5-060]	5 (Herbicidal rate of 90% or more (almost completely withered))	2 (Herbicidal rate of 20% or more and less than 40%)	3 (Herbicidal rate of 40% or more and less than 70%)	0 (Herbicidal rate of 5% or less (almost no effect))	0 (Herbicidal rate of 5% or less (almost no effect))	0 (Herbicidal rate of 5% or less (almost no effect))	0 (Herbicidal rate of 5% or less (almost no effect))	1 (Herbicidal rate of 5% or more and less than 20%)	1 (Herbicidal rate of 5% or more and less than 20%)	0 (Herbicidal rate of 5% or less (almost no effect))	0 (Herbicidal rate of 5% or less (almost no effect))	0 (Herbicidal rate of 5% or less (almost no effect))	5 (Herbicidal rate of 90% or more (almost completely withered))	0 (Herbicidal rate of 5% or less (almost no effect))	3 (Herbicidal rate of 40% or more and less than 70%)	J: blackgrass, herbicidal effect grade (blackgrass [27]): 0 (Herbicidal rate of 5% or less (almost no effect)); herbicidal effect on southern crabgrass (F) (southern crabgrass [14]): 3 (Herbicidal rate of 40% or more and less than 70%); herbicidal effect on green foxtail (G) (green foxtail [15]): 4 (Herbicidal rate of 70% or more and less than 90%); herbicidal effect on barnyard grass (H) (barnyard grass [16]): 4 (Herbicidal rate of 70% or more and less than 90%); herbicidal effect on wild oat (I) (wild oat [17]): 4 (Herbicidal rate of 70% or more and less than 90%); herbicidal effect on blackgrass (J) (blackgrass [18]): 4 (Herbicidal rate of 70% or more and less than 90%); herbicidal effect on Italian ryegrass (K) (Italian ryegrass [19]): 3 (Herbicidal rate of 40% or more and less than 70%); herbicidal effect on windgrass (L) (windgrass [20]): 3 (Herbicidal rate of 40% or more and less than 70%); herbicidal effect on velvetleaf (M) (velvetleaf [21]): 0 (Herbicidal rate of 5% or less (almost no effect)); herbicidal effect on lambsquarters (O) (lambsquarters [23]): 3 (Herbicidal rate of 40% or more and less than 70%); herbicidal effect on false cleavers (Q) (false cleavers [25]): 0 (Herbicidal rate of 5% or less (almost no effect)); herbicidal effect on persian speedwell (R) (persian speedwell [26]): 4 (Herbicidal rate of 70% or more and less than 90%)
